“Also recorded” adds a separate entry of the source.
Tests used:
brain edema after tMCAO = assay: Vasogenic edema after transient focal cerebral ischemia (tMCAO); format: in vivo, Sprague-Dawley rats; settings: rats; tMCAO 60 min; 15 mg/kg t.i.d. s.c. starting 1 hour after stroke onset; after the 48 hour MRI
Procedure: 30 adult male Sprague-Dawley rats purchased from Charles River, Germany and weighing 250-330 g were used for the experiment. Animals were housed at a standard temperature (22±1° C.) and in a light-controlled environment (lights on from 7 am to 8 pm) with ad libitum access to food and water.
Animals were grouped as follows:
• Group A: 15 rats treated with Vehicle (2 mL/kg, t.i.d., s.c.) starting 1 hour after stroke onset • Group B: 15 rats treated with AKB-9778-AS (15 mg/kg, t.i.d., s.c.) starting 1 hour after stroke onset tMCAO
Transient focal cerebral ischemia was produced by MCA occlusion in male Sprague-Dawley rats according to Koizumi with modifications (Koizumi et al., Jpn. J. Stroke 8:1-8, 1986). […] The rats were carefully monitored for possible post-surgical complications after the tMCAO. […]
D91 or vehicle was administered s.c. three times a day. […] The body weight of each animal is measured daily. […]
Tissue viability and vasogenic edema was determined using absolute T2 MRI. […] In addition to absolute T2, spin density (amount of MRI visible protons, indicator of vasogenic edema) ratio of ipsi and contralateral ROI's was determined by extrapolating signal intensity at TE=0 from multiple TE data (intercept of T2 fitting).
For the determination of infarct volume, the same acquired T2-weighted images were analyzed using in-house written Matlab based software for morphometric measurement. […]

IL-2 induced VLS = assay: IL-2 induced vascular leak syndrome in mice (blood pressure, shock, mortality); format: in vivo; settings: then 20 mg/kg for 3 days
Procedure: Twenty-five mice were used for the following experiment. Five are selected as the control and received no treatment. The remaining twenty mice were divided into four groups of five mice each and dosed as follows over a period of 5 days:
Tie-2 signal amplifier at 40 mg/kg for the first 2 days, then at 20 mg/kg for 3 days.
(VSL mechanistic analysis.

[1] = test system: pAKT and pERK1/2 in EA.hy962 cells; assay: Western blot analysis of pAKT and pERK1/2 in EA.hy962 cells; format: cell-based; settings: EA.hy962 cells cultured with varying amounts of D91 for 10 minutes; FIG. 9a
Procedure: FIG. 9a depicts a Western blot analysis showing the increase in pAKT and pERK1/2 when EA.hy962 cells were cultured in the presence of varying amounts of […] for 10 minutes. FIG. 9b depicts a Western blot analysis showing the levels of pAKT, pERK1/2 and β-Actin when EA.hy962 cells were cultured in the presence of 10 μg/mL […] from start (T=0) to 120 minutes.

[2] = test system: IL-2 induced hypotension and death; assay: Rescue of mice from IL-2 induced hypotension and death (systolic blood pressure); format: in vivo; settings: C3H/HeN female mice; 400,000 IU of IL-2 and 40 mg/kg D91; after 5 days of treatment; FIG. 5
Procedure: A represents the systolic blood pressure of C3H/HeN female mice treated with vehicle control. […] Measurements were taken after 5 days of treatment.
A represents 0 mg/kg D91, B represents 1 mg/kg D91, C represents 3 mg/kg D91, D represents 10 mg/kg D91, and E represents 30 mg/kg D91.

[3] = test system: LPS-induced acute kidney injury; assay: Liposaccharide (LPS) induced vascular leak model: acute kidney injury (BUN, renal neutrophil infiltration); format: in vivo; settings: male C57BL6 mice
Procedure: FIG. 7 depicts the level of blood urine nitrogen (BUN) in male C57BL6 mice injected i.p. with 0.2 mg E. coli lipopolysaccharides per 25 g body weight at 0 hours. Line (◯) represents mice receiving only LPS and line (●) represents mice receiving LPS and 50 mg/kg of D91 at 0, 8, and 16 hours.
FIG. 8 depicts the level of LPS-induced renal neutrophil infiltration at 24 hours in male C57BL6 mice injected i.p. with 0.2 mg E. coli lipopolysaccharides per 25 g body weight at 0 hours. A depicts the neutrophil infiltration in sham (conrol), B depicts the neutrophil infiltration in male C57BL6 mice injected i.p. with 0.2 mg E. coli lipopolysaccharides per 25 g body weight and 50 mg/kg of D91, C depicts mice receiving only LPS.
The following liposaccharide induced vascular leakage model can be used to confirm the ability of the disclosed compounds to decrease the effects of vascular leak syndrome caused by pathogens. […]
Male C57BL6 mice, 9 to 10 weeks old, were injected i.p. with 0.2 mg E. Coli lipopolysaccharide per 25 g body weight at time 0. […] Serum samples were analyzed for blood urea nitrogen (BUN) as a marker of kidney function.
Tissue samples from the animals were analyzed by high powered field microscopy to determine the number of polymorphonuclear leukocytes present.

[4] = test system: LPS-induced renal vascular leak; assay: LPS-induced renal vascular leak, 70 kDa fluorescent fixable dextran; format: in vivo; settings: mice; LPS at time 0, D91 at 1, 6 and 16 h; sacrifice at 24 hours; FIG. 10c
Procedure: FIG. 10a is a micrograph of a renal section from a mouse treated with vehicle control that is subsequently injected with 70 kDa fluorescent fixable dextran by intravenous catheter 2 minutes prior to sacrifice. G indicates glomerular capillaries where the dye should normally be contained.
FIG. 10b is a micrograph showing the vascular leakage in cells of a renal section from a mouse treat with LPS that is subsequently injected with 70 kDa fluorescent fixable dextran by intravenous catheter 2 minutes prior to sacrifice.
The pattern of staining in this section is similar to 10a.
Phosphatase inhibition by the disclosed PTP-β inhibitors reduces LPS-induced renal vascular leak. Mice were injected with LPS at time 0 and D91 or vehicle at 1, 6, and 16 h. Two minutes prior to sacrifice at 24 hours 70 kDa fluorescent fixable dextrans were administered by intravenous catheter. […] FIG. 10a is a micrograph of the control sample for the 70 kDa sample wherein the Letter “G” represents glomerular capillaries where the dye should normally be contained. FIG. 10b represents a renal section taken from an LPS treated animal and FIG. 10c represents a renal section taken from an animal treated with LPS and D91.

COC(=O)N[C@@H](Cc1ccccc1)C(=O)N[C@@H](Cc1ccc(NS(=O)(=O)O)cc1)c1csc(-c2cccs2)n1 [Compound D91, 4-{(S)-2-[(S)-2-(methoxycarbonylamino)-3-phenylpropanamido]-2-[2-(thiophen-2-yl)thiazol-4-yl]ethyl}phenylsulfamic acid]
brain tissue wet weight in ischemic hemisphere (edema) (brain edema after tMCAO): significantly lower
blood pressure (IL-2 induced VLS; IL-2 180,000 or 400,000 IU for 5 days plus D91 40 mg/kg first 2 days, FIG. 1): little effect on blood pressure
clinical symptoms of shock (IL-2 induced VLS; high dose IL-2 (400,000 IU, 5 days) plus D91 40 mg/kg first 2 days, FIG. 2): no signs of shock
IL-2 induced mortality (IL-2 induced VLS; high dose IL-2 (400,000 IU, 5 days) plus D91 40 mg/kg first 2 days, FIG. 3): survived
pAKT and pERK1/2 (Western blot) [1]: increase
rescue from IL-2 induced hypotension and death (systolic blood pressure) [2]: rescue of mice from IL-2 induced hypotension and death
blood urine nitrogen (BUN) level ([3]; LPS 0.2 mg per 25 g i.p., D91 50 mg/kg at 0, 8 and 16 hours, at 24 hours, FIG. 7): less than 80 mg/dL
number of PMN cells present (renal neutrophil infiltration), high powered field microscopy ([3]; LPS plus D91 50 mg/kg, 24 hours, average, FIG. 8): 12
extrusion of 70 kDa fluorescent dextran dye beyond the small peritubular capillaries (renal vascular leak) [4]: vascular integrity is preserved; also recorded: reduced
